These results are taken from US20250176554A1, “NON-TOXIC […] IN WHICH OZONE SYNERGIZE WITH CARBON DIOXIDE” (priority 2022, published 2025).

Series [1] has as its system coccid insects. The series can be described thus: two-stage ozone then carbon dioxide fumigation, text statements on the insects/pests. The format is in vivo. The source says:
(§1) Step 1: Placing the pest control object into a sample bottle, which contains coccid insects, and sealing the sample bottle with a pore size of 10 um filter membrane. This configuration simulates the environment of insects or other creatures hiding deep inside fruits, within stems, or shielded by stacked fruit packages (this test was also validated using stacked sugar apples and wax apples, yielding similar results). The sample is then placed in a fumigation chamber.
(§2) Step 2: After closing the fumigation chamber, vacuuming the chamber to 0.2 bar-0.9 bar, then maintaining this lower pressure for about 2 minutes to confirm that the fumigation chamber is well sealed.
(§3) Step 3: Introducing ozone at a concentration ranging from 40 ppm to 160 ppm into the fumigation chamber until 1.0-1.7 bar, and fumigating for 3-20 minutes.
(§4) Step 4: Exhausting the gas from the fumigation chamber, then vacuuming it to 0.2-0.9 bar, and maintaining this low pressure for about 2 minutes.
(§5) Step 5: Introducing high-concentration carbon dioxide into the fumigation chamber until 1.0-1.7 bar, fumigating for 10-30 minutes.
(§6) Step 6: After the above pest control steps, exhausting the gases from the fumigation chamber and restoring the chamber to atmospheric pressure, then removing the tested objects.
(§7) Step 7: Spraying 0.5 wt % methylene blue aqueous solution (light blue) or 0.05 wt % neutral red staining solution (light red) onto the insects and waiting for 60 minutes. Well-stained insects indicate death. All values are expressed as mean±SD. ANOVA or other appropriate statistical analysis methods were used, with P<0.05 indicating a significant difference.

In series [2] the test system is Pseudococcidae. Put plainly: two-stage ozone then carbon dioxide fumigation, lethal rate by staining. The format is in vivo.
Text: as §1, §2, §3, §4, §5, §6, §7
(§8) Using the same method as Embodiment 1, except that the concentration of the introduced ozone is adjusted (ranging from 40 ppm to 160 ppm). The pressure of the fumigation chamber in Step 2 is about 0.3 bar; in Step 3, it is about 1.3 bar, with the process lasting 5 minutes; in Step 4, it is about 0.3 bar; and in Step 5, the pressure is 1.3 bar, with the process lasting 15 minutes.
(§9) Using the same method as Embodiment 2, except that the evacuation pressure in Step 2 is adjusted (ranging from 0.2 bar to 0.9 bar); the concentration of the introduced ozone is approximately 70 ppm, and other parameters remain the same as those in Embodiment 2.
(§10) Using the same method as Embodiment 2, except that the ozone treatment duration in […] is adjusted (ranging from 3 to 30 minutes); the concentration of the introduced ozone is 70 ppm, and ozone is introduced until the pressure reaches 1.0 bar. Other parameters remain the same as those in Embodiment 2.
(§11) Using the same method as Embodiment 1, except that the treatment period of carbon dioxide is adjusted to 10-50 minutes. The evacuation pressure in the fumigation chamber in Step 2 is 0.3 bar. In Step 3, the pressure after the ozone input is controlled within 1.0-1.4 bar, and the pest-control treatment is conducted for 5 minutes. In Step 4, the fumigation chamber is evacuated to 0.3 bar. In Step 5, the pressure after the input of carbon dioxide (99.5% concentration) is controlled at 1.4 bar, and the pest-control treatment is conducted for 10-50 minutes.

Series [3] concerns Icerya purchasi. Described as above. The format is in vivo.
Text: as §1, §2, §3, §4, §5, §6, §7, §8, §9, §10, §11

Series [4] concerns silkworm eggs. The series can be described thus: ozone then carbon dioxide fumigation of silkworm eggs, hatching. The format is in vivo. Particulars: ozone pressure 1.4 bar; carbon dioxide introduced for 20 minutes. As for the experimental part: as §11
Using the same experimental conditions as Embodiment 5, when the ozone pressure is 1.4 bar, silkworm eggs were used for testing.

Series [5] relates to pests. Particulars: 60% CO2, asparagus; cited from earlier work.
Series [6] concerns red flour beetle. Particulars: pressurized CO2, 5 times to 15 times of the standard atmospheric pressure; cited from earlier work.
The subject of series [7] is dried apricot pests. Particulars: CO2 under 0.5 times atmospheric pressure; cited from earlier work.
Series [8] has as its system pests. Particulars: CO2 with 1.8 times of the standard atmospheric pressure; cited from earlier work.
Series [9] concerns aphids. Particulars: 10% CO2 in greenhouses; cited from earlier work.
Series [10] relates to mite eggs. Particulars: vacuum pumping then 60% CO2, normal temperature and normal pressure, at least 16 hours; cited from earlier work.
Where [11] appears, read: Step 2 vacuumed pressure 0.2 bar, ozone 70 ppm to 1.3 bar 5 min, then CO2 1.3 bar 15 min.
[12] abbreviates: Step 2 vacuumed pressure 0.3 bar, ozone 70 ppm to 1.3 bar 5 min, then CO2 1.3 bar 15 min.
[13] abbreviates: Step 2 vacuumed pressure 0.4 bar, ozone 70 ppm to 1.3 bar 5 min, then CO2 1.3 bar 15 min.
The mark [14] stands for this setting: Step 2 vacuumed pressure 0.5 bar, ozone 70 ppm to 1.3 bar 5 min, then CO2 1.3 bar 15 min.
Where [15] appears, read: Step 2 vacuumed pressure 0.6 bar, ozone 70 ppm to 1.3 bar 5 min, then CO2 1.3 bar 15 min.
[16] abbreviates: Step 2 vacuumed pressure 0.9 bar, ozone 70 ppm to 1.3 bar 5 min, then CO2 1.3 bar 15 min.
Setting [17] is: ozone 40 ppm to 1.3 bar 5 min, evacuation 0.3 bar, then CO2 1.3 bar 15 min.
The mark [18] stands for this setting: ozone 70 ppm to 1.0 bar for 3 min, evacuation 0.3 bar, then CO2 1.3 bar 15 min.
[19] abbreviates: ozone 70 ppm to 1.0 bar for 5 min, evacuation 0.3 bar, then CO2 1.3 bar 15 min.
Setting [20] is: ozone 70 ppm to 1.0 bar for 10 min, evacuation 0.3 bar, then CO2 1.3 bar 15 min.
[21] abbreviates: ozone 70 ppm to 1.0 bar for 15 min, evacuation 0.3 bar, then CO2 1.3 bar 15 min.
The mark [22] stands for this setting: ozone 70 ppm to 1.0 bar for 20 min, evacuation 0.3 bar, then CO2 1.3 bar 15 min.
Setting [23] is: ozone 70 ppm to 1.0 bar for 30 min, evacuation 0.3 bar, then CO2 1.3 bar 15 min.
[24] abbreviates: ozone 70 ppm to 1.3 bar 5 min, evacuation 0.3 bar, then CO2 1.3 bar 15 min.
Setting [25] is: ozone 100 ppm to 1.3 bar 5 min, evacuation 0.3 bar, then CO2 1.3 bar 15 min.
Where [26] appears, read: ozone 130 ppm to 1.3 bar 5 min, evacuation 0.3 bar, then CO2 1.3 bar 15 min.
The mark [27] stands for this setting: ozone 160 ppm to 1.3 bar 5 min, evacuation 0.3 bar, then CO2 1.3 bar 15 min.
Setting [28] is: ozone at 1.0 bar 5 min, evacuation 0.3 bar, CO2 99.5% at 1.4 bar for 10 min.
Setting [29] is: ozone at 1.0 bar 5 min, evacuation 0.3 bar, CO2 99.5% at 1.4 bar for 15 min.
Setting [30] is: ozone at 1.0 bar 5 min, evacuation 0.3 bar, CO2 99.5% at 1.4 bar for 20 min.
[31] abbreviates: ozone at 1.0 bar 5 min, evacuation 0.3 bar, CO2 99.5% at 1.4 bar for 30 min.
[32] abbreviates: ozone at 1.0 bar 5 min, evacuation 0.3 bar, CO2 99.5% at 1.4 bar for 40 min.
The mark [33] stands for this setting: ozone at 1.4 bar 5 min, evacuation 0.3 bar, CO2 99.5% at 1.4 bar for 10 min.
Setting [34] is: ozone at 1.4 bar 5 min, evacuation 0.3 bar, CO2 99.5% at 1.4 bar for 15 min.
Setting [35] is: ozone at 1.4 bar 5 min, evacuation 0.3 bar, CO2 99.5% at 1.4 bar for 20 min.
[36] abbreviates: ozone at 1.4 bar 5 min, evacuation 0.3 bar, CO2 99.5% at 1.4 bar for 30 min.
[37] abbreviates: ozone at 1.4 bar 5 min, evacuation 0.3 bar, CO2 99.5% at 1.4 bar for 40 min.

`O=[O+][O-]` [ozone]: the Lethal rate is reported as 100% in series [1] (ozone 70 ppm, 90 minutes after the treatment in Step 3); 100 ± 0% in series [2] (setting [11]); 91 ± 5% in series [2] (setting [12]); 82 ± 10% in series [2] (setting [13]); 71 ± 13% in [2] (setting [14]); 52 ± 14% in [2] (setting [15]). Also, the Lethal rate in series [2] (setting [16]) is listed as 30 ± 17%; in series [2] (setting [17]), 81 ± 11%; in series [2] (setting [18]) it was 61 ± 16%; in [2] (setting [19]), 71 ± 10%; in series [2] (setting [20]), 91 ± 7%; in series [2] (setting [21]), 100 ± 0%. Moreover, the Lethal rate in [2] (setting [22]) came out at 100 ± 0%; in series [2] (setting [23]) it was 100 ± 0%; in series [2] (setting [24]) it was 93 ± 7%; in series [2] (setting [25]), 100 ± 0%; in [2] (setting [26]) it was 100 ± 0%; in series [2] (setting [27]), 100 ± 0%. Besides, the Lethal rate in series [3] (setting [11]) worked out at 100 ± 0%; in series [3] (setting [12]), 96 ± 3%; in [3] (setting [13]), 85 ± 12%; in series [3] (setting [14]), 68 ± 17%; in [3] (setting [15]) it was 48 ± 16%; in [3] (setting [16]), 37 ± 18%. Besides, the Lethal rate was 76 ± 10% in series [3] (setting [17]); 64 ± 14% in [3] (setting [18]); 68 ± 9% in series [3] (setting [19]); 87 ± 9% in series [3] (setting [20]); 100 ± 1% in series [3] (setting [21]); 100 ± 0% in [3] (setting [22]). The Lethal rate in [3] (setting [23]) was found to be 100 ± 0%; in [3] (setting [24]) it was 98 ± 3%; in [3] (setting [25]), 100 ± 0%; in series [3] (setting [26]), 100 ± 0%; in [3] (setting [27]), 100 ± 0%. Also, the final lethal rate in series [1] (vacuum pressure 0.4 or 0.5 bar, ozone 70 ppm, after 90 minutes of ozone treatment) was 100%.

Turning to ozone and carbon dioxide, the “hatching of silkworm eggs” value in series [4] was “none of the silkworm eggs in the experimental group hatched”. In addition, the “time to completely kill the pests” value in series [1] (ozone 5 minutes at 1.0 bar, in synergy with carbon dioxide) was “about 30 minutes”; in series [1] (ozone 5 minutes at 1.4 bar, then carbon dioxide), 15 min. Further, the “pest control / pest elimination” value in series [1] (two-stage fumigation, within 20 minutes) came to 100%.

Regarding `O=C=O` [CO2, carbon dioxide], the “time required to achieve minimal pest control” value in series [5] is listed as “more than 48 hours”. Besides, the “time required to kill most of the pests” value in series [6] is “at least 1.8 days”. Besides, the “time required to kill 90% of pests” value in [7] was “over 24 hours”. Further, the “time required to achieve the minimal pest control” value in [8] is “at least 120 minutes”. Also, the “time required to achieve minimal pest control effects” value in series [9] is “one week”. Moreover, the “mortality of mite eggs” value in series [10] is 89%. Moreover, the Lethal rate in [2] (setting [28]) was found to be 81 ± 6%; in [2] (setting [29]) it was 91 ± 8%; in [2] (setting [30]), 100 ± 1%; in series [2] (setting [31]), 100 ± 0%; in series [2] (setting [32]), 100 ± 0%; in series [2] (setting [33]) it was 89 ± 8%. Further, the Lethal rate in [2] (setting [34]) turned out to be 100 ± 1%; in [2] (setting [35]), 100 ± 0%; in series [2] (setting [36]) it was 100 ± 0%; in series [2] (setting [37]), 100 ± 0%; in series [3] (setting [28]) it was 72 ± 11%; in series [3] (setting [29]), 88 ± 11%. In addition, the Lethal rate is recorded as 97 ± 4% in series [3] (setting [30]); 100 ± 0% in series [3] (setting [31]); 100 ± 0% in [3] (setting [32]); 92 ± 11% in series [3] (setting [33]); 100 ± 0% in [3] (setting [34]); 100 ± 0% in [3] (setting [35]). Also, the Lethal rate in [3] (setting [36]) and in [3] (setting [37]) was 100 ± 0% throughout.
